Reference: patent US8580784B2, “Method for treating a disease related to the glucocorticoid receptor” (Santen Pharmaceutical Co., Ltd., priority 2006, dated 2013)

Molecular target: T1, Recombinant human GR (Homo sapiens, UniProt P04150)
T1 construct: purchased Invitrogen P2816
T1 sequence (P04150 1-777): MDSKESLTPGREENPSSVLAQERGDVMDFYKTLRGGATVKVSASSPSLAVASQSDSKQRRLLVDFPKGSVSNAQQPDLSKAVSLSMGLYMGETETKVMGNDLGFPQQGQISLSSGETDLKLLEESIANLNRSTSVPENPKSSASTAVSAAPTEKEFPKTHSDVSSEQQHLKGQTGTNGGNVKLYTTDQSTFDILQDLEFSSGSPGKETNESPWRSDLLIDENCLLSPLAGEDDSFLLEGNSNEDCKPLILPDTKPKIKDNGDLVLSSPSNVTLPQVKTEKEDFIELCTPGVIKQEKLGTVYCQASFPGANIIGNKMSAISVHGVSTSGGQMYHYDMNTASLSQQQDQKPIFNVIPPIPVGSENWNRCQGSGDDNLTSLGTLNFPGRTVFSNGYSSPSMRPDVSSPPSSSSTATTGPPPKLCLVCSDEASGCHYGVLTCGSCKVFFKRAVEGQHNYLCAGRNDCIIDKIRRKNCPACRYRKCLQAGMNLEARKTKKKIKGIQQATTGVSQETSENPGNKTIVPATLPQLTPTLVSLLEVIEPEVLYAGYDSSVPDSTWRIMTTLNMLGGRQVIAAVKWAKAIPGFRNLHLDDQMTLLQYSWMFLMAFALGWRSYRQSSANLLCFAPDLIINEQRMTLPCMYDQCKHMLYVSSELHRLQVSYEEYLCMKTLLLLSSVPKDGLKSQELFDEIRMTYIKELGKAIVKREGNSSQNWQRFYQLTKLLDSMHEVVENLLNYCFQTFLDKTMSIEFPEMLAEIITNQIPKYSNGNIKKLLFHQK
Assay: Evaluation test for binding activity to glucocorticoid receptor: receptor competitor assay by fluorescence polarization (Invitrogen GR competitor assay kit, cat No. P2816)
Conditions: 20 μM test compound solution, 10 μL per well plus 5 μL 4×GS1 and 5 μL 4×GR solution; room temperature 2 to 4 hours; a ratio of 100% or more is indicated by 100%
Description: A detailed explanation of this matter will be described in the section of “Pharmacological Test” in Examples described below. In order to find the usefulness of the present compound as a pharmaceutical, a glucocorticoid receptor competitor assay was carried out by a fluorescence polarization method by using a glucocorticoid receptor competitor assay kit (manufactured by Invitrogen, cat No. P2816) to study the glucocorticoid receptor binding activity of the present compound.
1. Evaluation Test for Binding Activity to Glucocorticoid Receptor (hereinafter referred to as “GR”)
In order to evaluate a binding activity to GR, a receptor competitor assay was carried out by a fluorescence polarization method. In the assay, a GR competitor assay kit (manufactured by Invitrogen, cat No. P2816) was used, and a procedure was carried out according to the protocol attached to the kit. Hereinafter, the specific method will be described.
(Preparation of Reagents)
GR screening buffer: A buffer containing 10 mM potassium phosphate (pH 7.4), 20 mM sodium molybdate (Na2MoO4), 0.1 mM ethylene diamine tetraacetic acid (EDTA), 5 mM dithiothreitol (DTT), 0.1 mM stabilizing peptide and 2% dimethylsulfoxide was prepared.
4×GS1 solution: Fluormone™ GS1, which is a fluorescent glucocorticoid ligand, was diluted with GR screening buffer, whereby a 4 nM solution was prepared.
4×GR solution: Recombinant human GR was diluted with GR screening buffer, whereby a 16 nM solution was prepared.
(Preparation of Test Compound Solution)
After a test compound was dissolved in dimethylsulfoxide, the resulting solution was diluted with GR screening buffer, whereby a 20 μM test compound solution was prepared.
(Test Method and Measurement Method)
1) The test compound solution was added in an amount of 10 μL into each well of a 384-well plate, and then, 4×GS1 solution and 4×GR solution were added in an amount of 5 μL into each well, respectively.
2) The plate was incubated in a dark place at room temperature for 2 to 4 hours.
3) By using a multimode plate reader, Analyst™ HT (manufactured by LJL Biosystems), fluorescence polarization of each well was measured. As the blank, a well containing GR screening buffer in place of the test compound and 4×GS1 solution was used.
4) The same procedure as that in the above 1) to 3) was carried out except that GR screening buffer was used in place of the test compound solution, and the obtained result was taken as the negative control.
5) The same procedure as that in the above 1) to 3) was carried out except that 2 mM dexamethasone was used in place of the test compound solution, and the obtained result was taken as the positive control.
(Calculation Equation of GR Binding Ratio)
A GR binding ratio (%) was calculated from the following equation. GR binding ratio(%)=100×[1−(fluorescence polarization of test compound solution−fluorescence polarization of positive control solution)/(fluorescence polarization of negative control solution−fluorescence polarization of positive control solution)] (Test Results and Discussion)

Structure (SMILES) | inhibition at 20 µM (stock) [%] | inhibition at 20 µM [%]
COc1cc(OC(=O)c2occc2C)ccc1-c1ccc2c(c1CNc1cc(F)ccc1C)C(C)=CC(C)(C)N2 [Compound 1-42, 5-(5-Fluoro-2-methylphenylaminomethyl)-6-[2-methoxy-4-(3-methylfuran-2-ylcarbonyloxy)phenyl]-2,2,4-trimethyl-1,2-dihydroquinoline] | 100 | –
COc1ccccc1NCc1c(-c2ccc(OC(=O)N3CCOCC3)cc2OC)ccc2c1C(C)=CC(C)(C)N2 [Compound 1-44, 6-[2-Methoxy-4-(morpholin-4-ylcarbonyloxy)phenyl]-5-(2-methoxyphenylaminomethyl)-2,2,4-trimethyl-1,2-dihydroquinoline] | 96 | –
COc1cc(OC(=O)N2CCOCC2)ccc1-c1ccc2c(c1CNc1cc(F)ccc1C)C(C)=CC(C)(C)N2 [Compound 1-45, 5-(5-Fluoro-2-methylphenylaminomethyl)-6-[2-methoxy-4-(morpholin-4-ylcarbonyloxy)phenyl]-2,2,4-trimethyl-1,2-dihydroquinoline] | 100 | –
CCCS(=O)(=O)Oc1ccc(-c2ccc3c(c2CNc2ccccc2OC)C(C)=CC(C)(C)N3)c(OC)c1 [Compound 2-1, 5-(2-Methoxyphenylaminomethyl)-6-(2-methoxy-4-propylsulfonyloxyphenyl)-2,2,4-trimethyl-1,2-dihydroquioline] | – | 100
COc1ccccc1NCc1c(-c2ccc(OS(=O)(=O)C(C)C)cc2OC)ccc2c1C(C)=CC(C)(C)N2 [Compound 2-2, 6-(4-Isopropylsulfonyloxy-2-methoxyphenyl)-5-(2-methoxyphenylaminomethyl)-2,2,4-trimethyl-1,2-dihydroquioline] | 100 | –
COc1ccccc1NCc1c(-c2ccc(OS(C)(=O)=O)cc2OC)ccc2c1C(C)=CC(C)(C)N2 [Compound 2-5, 6-(2-Methoxy-4-methylsulfonyloxyphenyl)-5-(2-methoxyphenylaminomethyl)-2,2,4-trimethyl-1,2-dihydroquioline] | 93 | –
CCCS(=O)(=O)Oc1ccc(-c2ccc3c(c2CNc2cc(F)ccc2C)C(C)=CC(C)(C)N3)c(OC)c1 [Compound 2-6, 5-(5-Fluoro-2-methylphenylaminomethyl)-6-(2-methoxy-4-propylsulfonyloxyphenyl)-2,2,4-trimethyl-1,2-dihydroquioline] | 100 | –
COc1ccccc1NCc1c(-c2ccc(OS(=O)(=O)C3CC3)cc2OC)ccc2c1C(C)=CC(C)(C)N2 [Compound 2-7, 6-(4-Cyclopropylsulfonyloxy-2-methoxyphenyl)-5-(2-methoxyphenylaminomethyl)-2,2,4-trimethyl-1,2-dihydroquioline] | 100 | –
COc1ccccc1NCc1c(-c2ccc(OS(=O)(=O)C3CCCC3)cc2OC)ccc2c1C(C)=CC(C)(C)N2 [Compound 2-10, 6-(4-Cyclopentylsulfonyloxy-2-methoxyphenyl)-5-(2-methoxyphenylaminomethyl)-2,2,4-trimethyl-1,2-dihydroquioline] | 100 | –
COc1cc(OS(C)(=O)=O)ccc1-c1ccc2c(c1CNc1cc(F)ccc1C)C(C)=CC(C)(C)N2 [Compound 2-11, 5-(5-Fluoro-2-methylphenylaminomethyl)-6-(2-methoxy-4-methylsulfonyloxyphenyl)-2,2,4-trimethyl-1,2-dihydroquioline] | 100 | –
COc1ccccc1NCc1c(-c2ccc(OC(=O)Nc3cccnc3)cc2OC)ccc2c1C(C)=CC(C)(C)N2 [Compound 4-3, 5-(2-Methoxyphenylaminomethyl)-6-[2-methoxy-4-(pyridin-3-ylaminocarbonyloxy)phenyl]-2,2,4-trimethyl-1,2-dihydroquioline] | – | 91
